Data as given in ChEMBL document CHEMBL1149571, “Proinsecticide candidates N-(5-methyl-2-oxo-1,3-dioxol-4-yl)methyl derivatives of imidacloprid and 1-chlorothiazolylmethyl-2-nitroimino-imidazolidine” (Bioorg Med Chem Lett, 2007).
Active and inactive are the calls of the source. The rule behind the calls is not given here.

How the values were obtained:
[1] = Chemical stability assessed as half life of hydrolysis in physiological solution at pH 7.6; format: physicochemical
Periplaneta americana [2] = assay: Activity at nAch receptor in american cockroach neurons assessed as induction of inward current at 10 uM by whole-cell patch clamp method
[3] = Chemical stability assessed as half life of hydrolysis in acidic buffer at pH 5.4; format: physicochemical
[4] = Chemical stability assessed as half life of hydrolysis in alkaline buffer at pH 8.3; format: physicochemical
Periplaneta americana [5] = assay: Insecticidal activity against american cockroach after 24 hrs; format: functional

With Cc1oc(=O)oc1CN1CCN(Cc2ccc(Cl)nc2)/C1=N\[N+](=O)[O-] the half-life [1] was 11.6 h, the Activity (Periplaneta americana [2]) was “Active” and the half-life [3] was > 48 h. For the same compound, the half-life [4] was 15.5 h and the MLD (Periplaneta americana [5]) was 6.4 10^-8mol.
In the case of Cc1oc(=O)oc1CN1CCN(Cc2cnc(Cl)s2)/C1=N\[N+](=O)[O-], the half-life [1] is reported as 10.5 h, the Activity (Periplaneta americana [2]) is reported as “Active” and the half-life [3] is reported as > 48 h. The half-life [4] was 10.6 h and the MLD (Periplaneta americana [5]) was 6.4 10^-8mol.
